In patent US20060063736A1, “Compositions and methods for inhibiting mucin-type O-linked glycosylation” (priority 2004, published 2006):
Read-outs that look alike come from different tables or passages of the source.

Tests used:
[1] = system: UDP-galactopyranose mutase; details: Scherman et al. (2003); cited from earlier work
mppGalNAcT-2 = molecular target: T1, mppGalNAcT-2 (Mus musculus, UniProt Q6PB93); test: ELLA for ppGalNAcTs, mppGalNAcT-2; format: biochemical, murine; details: 20 μM UDP-GalNAc, 50 μM EA2 peptide 4
T1 construct: plasmids encoding truncated secreted ppGalNAcTs-1 to −5, -7, -10 and -11; made in house; host or cells: COS-7
T1 sequence (Q6PB93 25-570 limits assumed): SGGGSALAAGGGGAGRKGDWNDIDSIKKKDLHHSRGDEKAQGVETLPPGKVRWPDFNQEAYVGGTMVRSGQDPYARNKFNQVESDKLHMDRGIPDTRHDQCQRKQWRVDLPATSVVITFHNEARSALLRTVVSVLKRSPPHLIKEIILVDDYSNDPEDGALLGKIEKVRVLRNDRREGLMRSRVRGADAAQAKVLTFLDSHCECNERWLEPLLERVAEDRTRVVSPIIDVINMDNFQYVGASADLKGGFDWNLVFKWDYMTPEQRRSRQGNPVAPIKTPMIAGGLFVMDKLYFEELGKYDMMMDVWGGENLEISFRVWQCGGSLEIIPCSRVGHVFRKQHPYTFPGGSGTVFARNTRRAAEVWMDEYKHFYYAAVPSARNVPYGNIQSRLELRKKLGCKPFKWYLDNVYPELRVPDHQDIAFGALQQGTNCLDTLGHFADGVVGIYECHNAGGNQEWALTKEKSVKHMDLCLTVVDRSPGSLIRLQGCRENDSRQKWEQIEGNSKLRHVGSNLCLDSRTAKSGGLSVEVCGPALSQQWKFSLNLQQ
Method: (§1) COS-7 cells were transiently transfected with plasmids encoding truncated secreted ppGalNAcTs-1 to −5, -7, -10 and -11 as previously described. Hagen et al. (1997) J. Biol. Chem. 272:13843-13848. The crude conditioned medium was used as the enzyme source.
(§2) Standard reaction conditions for ppGalNAcT assays were as follows. The reaction mixture contained the following components in a final volume of 25 μL: 10 mM MnCl2, 40 mM sodium cacodylate, 40 mM β-mercaptoethanol, 0.1% Triton X-100, pH 6.5, 5 μL of conditioned media, and various concentrations of EA2 peptide 4, UDP-GalNAc and inhibitor. All uridine-based compounds were dissolved in dimethyl sulfoxide (DMSO). […] Reaction rates were linear over the period monitored (20-30 min).
(§3) 96-Well NeutrAvidin-coated plates were prewashed 3 times with 200 μL of wash buffer (25 mM Tris, 150 mM NaCl, 0.1% bovine serum albumin (BSA) (w/v), and 0.05% Tween (v/v), pH 7.2). […] After 3 washes with 200 μL of PBS, bound HPA-HRP was quantified by the addition of 100 μL of TMB peroxide solution. […] HRP activity was terminated by the addition of 50 μL of 2 N H2SO4 and the resulting solution was analyzed at 450 nm using a UV/Vis microtiter plate reader. The amount of product generated by the ppGalNAcT was extrapolated from absorbance values using an equation fit to the standard curve derived from Origin 6.1 software.

Jurkat cells = test: HPA staining of Jurkat cells (Tn-antigen), flow cytometry; format: cell-based, human; details: Homo sapiens, 48 h, read-out: EC50 of inhibition of HPA staining
Method: Jurkat cells were seeded at 250,000 cells/well (determined by Coulter cell counter) in 12-well polystyrene tissue culture plates in 1.0 mL of media and treated with various concentrations of 1-68A or 2-68A from 50 mM dimethyl sulfoxide (DMSO) stock solutions or doxorubicin or campothecin from 1 mM DMSO stock solutions. After 2 d, cells were harvested, washed twice with PBS buffer (PBS, pH 7.4, 0.1% FCS, 0.1% NaN3 w/v) and stained with FITC-HPA (1 μg/mL) or FITC-Con A (5 μg/mL with 1 mM CaCl2) in PBS, pH 7.4 in the dark for 1 h at 4° C. Cells were washed twice with PBS buffer, resuspended in 300 μL of PBS buffer and analyzed by flow cytometry (FacsCaliber, BD Instruments). Annexin-V staining was performed according to the manufacturer's protocols (Invitrogen).
To directly monitor ppGalNAcT activities in cells, Jurkat cells (human T-cell lymphoma), which are known to produce only the Tn-antigen (FIG. 1) as their O-linked glycans, were chosen. Piller et al. (1990) J. Biol. Chem. 265:9264-9271. Changes in Tn-antigen expression on the surface of Jurkat cells were monitored by HPA binding followed by flow cytometry analysis. Con A staining of N-linked glycans was used as a control for non-specific inhibition of protein glycosylation. Baenziger and Fiete (1979) J. Biol. Chem. 254:2400-2407.

mppGalNAcT-4 = molecular target: T2, mppGalNAcT-4 (Mus musculus, UniProt O08832); test: ELLA for ppGalNAcTs, mppGalNAcT-4; format: biochemical, murine; details: 20 μM UDP-GalNAc, 50 μM EA2 peptide 4
T2 construct: plasmids encoding truncated secreted ppGalNAcTs-1 to −5, -7, -10 and -11; made in house; host or cells: COS-7
T2 sequence (O08832 36-578 limits assumed): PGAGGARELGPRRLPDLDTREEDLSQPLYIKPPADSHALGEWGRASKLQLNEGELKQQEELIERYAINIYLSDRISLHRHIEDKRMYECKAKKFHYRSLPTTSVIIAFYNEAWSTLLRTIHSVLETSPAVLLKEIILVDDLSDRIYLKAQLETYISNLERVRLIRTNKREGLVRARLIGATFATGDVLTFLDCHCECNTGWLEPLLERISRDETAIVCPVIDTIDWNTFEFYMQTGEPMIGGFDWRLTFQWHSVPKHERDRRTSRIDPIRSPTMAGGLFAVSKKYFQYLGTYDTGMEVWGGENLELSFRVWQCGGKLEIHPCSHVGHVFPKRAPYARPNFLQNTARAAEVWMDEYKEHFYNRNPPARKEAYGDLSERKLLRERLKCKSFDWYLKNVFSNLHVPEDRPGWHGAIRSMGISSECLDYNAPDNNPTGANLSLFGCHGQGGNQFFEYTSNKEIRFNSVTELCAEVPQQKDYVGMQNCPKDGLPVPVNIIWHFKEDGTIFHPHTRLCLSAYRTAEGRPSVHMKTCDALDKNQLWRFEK
Method: as §1, §2, §3

| SMILES | identified in library screen against UDP-galactopyranose mutase [1] | IC50 (mppGalNAcT-2) | EC50 (Jurkat cells; Jurkat cells, 2 d treatment) | IC50 (mppGalNAcT-4) | EC50 (Jurkat cells; Jurkat) |
| --- | --- | --- | --- | --- | --- |
| O=c1ccn([C@@H]2O[C@H](CON=Cc3ccc(O)c(O)c3O)[C@@H](O)[C@H]2O)c(=O)[nH]1 [1-68A] | not identified | 15 ± 1 µM | ~80 µM | 30 ± 5 µM |  |
| O=C(CON=Cc1ccc(O)c(O)c1O)NC[C@H]1O[C@@H](n2ccc(=O)[nH]c2=O)[C@H](O)[C@@H]1O [2-68A] | not identified | 18 ± 2 µM |  | 20 ± 5 µM | ~80 µM |
